Test results from the NIST ThermoML archive (doi:10.1016/j.jct.2012.01.028).

Settings: 101.33 kPa, Liquid; for electrical conductivity: Alternating current cell with electrodes; for speed of sound: Sing-around technique in a fixed-path interferometer; for mass density: Vibrating tube method

CCCCn1cc[n+](C)c1.F[P-](F)(F)(F)(F)F [1-butyl-3-methylimidazolium hexafluorophosphate]
Settings	electrical conductivity [S/m]	mass density [kg/m3]	speed of sound [m/s]
293.15 K	0.137	1371.61	1454.9
298.15 K	0.183	1367.65	1442.6
303.15 K	0.224	1363.13	1430.7
308.15 K	0.267	1359.04	1419
313.15 K	0.314	1354.93	1407.6
318.15 K	0.384	1350.83	1396.3
323.15 K	0.459	1346.72	1385.2
